Laboratory results reported in patent publication EP2812315B1, “PYRROLIC DERIVATIVES, PROCESSES FOR PREPARING THE SAME AND THEIR USES AS A DRUG” (Universite Joseph Fourier, priority 2012, dated 2013).
≈ marks a conversion by molar mass, not a printed value. Like-named read-outs stand apart in the source and are kept apart here.

Assays:
Format in all cases: cell-based
[1] = test system: Acinetobacter baumanii ATCC 19606; assay: MIC determination, microdilution method (CLSI M07-A8); details: Acinetobacter baumannii
Method: (§1) The microdilution method recommended by the Clinical and Laboratory Standard Institute [M07-A8, Vol.29, N°2] was used. The activity of pyrrolic compounds was tested against 29 bacterial strains belonging to 17 different species and 12 different genera (Staphylococcus, Streptococcus, Enterococcus, […], Bacillus, Haetttophilus, Escherichia, Klebsiella, Enterobacter, Serratia, Pseudomonas, and Acinetobacter). Bacterial inocula were prepared in Mueller Hinton broth (MH2, bioMérieux, Marcy L'Etoile, France), supplemented with 10% sheep blood for fastidious species (i.e., Streptococcus pneumoniae and Haemophilus influenzae). They were dispensed in 96 well microtiter plates (5 x 10^5 CFU/mL of final inoculum). Pyrrolic compounds were added to the wells as to obtain two-fold serial concentrations (0.25-64 mg/L). Plates were incubated at 37°C, in 5% CO2 enriched atmosphere for fastidious species only. MICs were read after 18 hours incubation of cultures, and corresponded to the minimum pyrrolic compound concentration that allowed complete visual growth inhibition of bacteria. Drug-free cultures served as growth controls. Cultures receiving gentamicine, ciprofloxacine or cefotaxime served as positive controls.

[2] = test system: Enterobacter cloacae ATCC13047; assay: as above
Method: as §1

[3] = test system: Escherichia coli ATCC 25922; assay: as above
Method: as §1

[4] = test system: Klebsiella pneumoniae ATCC 35657; assay: as above
Method: as §1

[5] = test system: Pseudomonas aeruginosa CIP 5933; assay: as above
Method: as §1

[6] = test system: Serratia marcescens CIP 103551; assay: as above
Method: as §1

[7] = test system: Staphylococcus aureus ATCC 25923; assay: as above
Method: as §1

[8] = test system: Staphylococcus aureus ATCC 29213; assay: as above
Method: as §1

[9] = test system: Staphylococcus epidermidis ATCC 12228; assay: as above
Method: as §1

[10] = test system: HCT116 (human colon tumor); assay: In vitro cytotoxicity; details: HCT-116, 10^-5 M in DMSO, triplicate, read-out: % of cellular growth inhibition
Method: (§2) In vitro cytotoxicity was assayed on three cell lines - KB (human mouth carcinoma), MCR5 (human lung fibroblast) and HCT116 (human colon tumor). Results are presented in table III as % of cellular growth inhibition in presence of 10^-5 M and 10^-6 M of the tested bis-pyrrolic derivatives in DMSO (triplicate).

[11] = test system: KB (human mouth carcinoma); assay: In vitro cytotoxicity; details: 10^-5 M in DMSO, triplicate, read-out: % of cellular growth inhibition
Method: as §2

[12] = test system: MRC5; assay: In vitro cytotoxicity; details: MRC5 (human lung fibroblast); 10^-5 M in DMSO; triplicate; read-out: % of cellular growth inhibition
Method: as §2

[13] = test system: Bacillus subtilis CIP 5262; assay: MIC determination, microdilution method (CLSI M07-A8); details: CIP5262, 18 hours incubation
Method: as §1

[14] = test system: Enterococcus faecalis ATCC 29212; assay: as above; details: ATCC29212, 18 hours incubation
Method: as §1

[15] = test system: Enterococcus faecium CIP 54.32; assay: as above; details: CIP54, 18 hours incubation
Method: as §1

[16] = test system: Haemophilus influenzae ATCC 49766; assay: as above; details: ATCC49766, 10% sheep blood, 5% CO2, 18 hours incubation
Method: as §1

[17] = test system: Listeria innocua CIP 80.11; assay: as above; details: CIP80, 18 hours incubation
Method: as §1

[18] = test system: Staphylococcus aureus ATCC 106414 (VISA); assay: as above; details: 5 x 10^5 CFU/mL, 18 hours incubation
Method: as §1

[19] = test system: Staphylococcus aureus ATCC 33592 (MRSA); assay: as above; details: 5 x 10^5 CFU/mL, 18 hours incubation
Method: as §1

[20] = test system: Staphylococcus aureus ATCC 6538; assay: as above; details: ATCC6538, 5 x 10^5 CFU/mL, 18 hours incubation
Method: as §1

[21] = test system: Staphylococcus aureus ATCC 9144; assay: as above; details: ATCC9144, 5 x 10^5 CFU/mL, 18 hours incubation
Method: as §1

[22] = test system: Staphylococcus aureus CIP 103428; assay: as above; details: CIP103428, 5 x 10^5 CFU/mL, 18 hours incubation
Method: as §1

[23] = test system: Staphylococcus aureus CIP 65.25 (MRSA); assay: as above; details: 5 x 10^5 CFU/mL, 18 hours incubation
Method: as §1

[24] = test system: Staphylococcus aureus CIP 65.6; assay: as above; details: CIP65, 5 x 10^5 CFU/mL, 18 hours incubation
Method: as §1

[25] = test system: Staphylococcus aureus SA-1199B; assay: as above; details: SA1199B, 18 h
Method: as §1

[26] = test system: Staphylococcus epidermidis CIP 103627; assay: as above; details: CIP103627, 5 x 10^5 CFU/mL, 18 hours incubation
Method: as §1

[27] = test system: Staphylococcus epidermidis CIP 81.55; assay: as above; details: CIP81, 5 x 10^5 CFU/mL, 18 hours incubation
Method: as §1

[28] = test system: Streptococcus agalactiae (group B) ATCC 12400; assay: as above; details: ATCC12400, 18 hours incubation
Method: as §1

[29] = test system: Streptococcus mitis CIP 103335; assay: as above; details: CIP103335, 18 hours incubation
Method: as §1

[30] = test system: Streptococcus pneumoniae ATCC 49619; assay: as above; details: ATCC49619, 10% sheep blood, 5% CO2, 18 hours incubation
Method: as §1

[31] = test system: Streptococcus pneumoniae ATCC 6303; assay: as above; details: ATCC6303, 10% sheep blood, 5% CO2, 18 hours incubation
Method: as §1

[32] = test system: Streptococcus pyogenes (group A) CIP 104226; assay: as above; details: CIP104226, 18 hours incubation
Method: as §1

[33] = ATCC19606, Acinetobacter baumanii ATCC 19606, 18 hours incubation, read-out: MIC
[34] = Enterobacter cloacae ATCC13047, 18 hours incubation, read-out: MIC
[35] = ATCC25922, Escherichia coli ATCC 25922, 18 hours incubation, read-out: MIC
[36] = ATCC35657, Klebsiella pneumoniae ATCC 35657, 18 hours incubation, read-out: MIC
[37] = CIP5933, Pseudomonas aeruginosa CIP 5933, 18 hours incubation, read-out: MIC
[38] = CIP103551, Serratia marcescens CIP 103551, 18 hours incubation, read-out: MIC
[39] = ATCC25923, Staphylococcus aureus ATCC 25923, 5 x 10^5 CFU/mL, 18 hours incubation, read-out: MIC
[40] = ATCC29213, Staphylococcus aureus ATCC 29213, 5 x 10^5 CFU/mL, 18 hours incubation, read-out: MIC
[41] = ATCC12228, Staphylococcus epidermidis ATCC 12228, 5 x 10^5 CFU/mL, 18 hours incubation, read-out: MIC

MIC [1, 33] [µg/mL] | MIC [2, 34] [µg/mL] | MIC [3, 35] [µg/mL] | MIC [4, 36] [µg/mL] | MIC [5, 37] [µg/mL] | MIC [6, 38] [µg/mL] | MIC [7, 39] [µg/mL] | MIC [8, 40] [µg/mL] | MIC [9, 41] [µg/mL] | SMILES | inhibition at 10 µM [10] [%] | inhibition at 10 µM [11] [%] | inhibition at 10 µM [12] [%] | MIC [18] [µg/mL] | MIC [19] [µg/mL] | MIC [20] [µg/mL] | MIC [21] [µg/mL] | MIC [22] [µg/mL] | MIC [23] [µg/mL] | MIC [24] [µg/mL] | MIC [26] [µg/mL] | further results
> 32 | > 32 | > 32 | > 32 | > 32 | > 32 | 8 (≈ 16.4 µM) | 4 (≈ 8.19 µM) | > 128 | CC(=O)c1c(C)[nH]c(C(c2ccccc2I)c2[nH]c(C)c(C(C)=O)c2C)c1C [3k] | 0 | 20 ± 8 | 3 ± 5 | – | – | – | – | – | – | – | – | –
– | – | – | – | – | – | – | – | – | CC(=O)c1c(C)[nH]c(C(c2ccccc2O)c2[nH]c(C)c(C(C)=O)c2C)c1C [3m] | 0 | 6 ± 10 | 1 ± 17 | – | – | – | – | – | – | – | – | MIC ([1]; ATCC19606, 18 h): > 32 µg/mL; MIC ([2]; Enterobacter cloacae, ATCC13047, 18 h): > 32 µg/mL; MIC ([3]; Escherichia coli, ATCC25922, 18 h): > 32 µg/mL; MIC ([4]; Klebsiella pneumoniae, ATCC35657, 18 h): > 32 µg/mL; MIC ([5]; Pseudomonas aeruginosa, CIP5933, 18 h): > 32 µg/mL; MIC ([6]; Serratia marcescens, CIP103551, 18 h): > 32 µg/mL; MIC ([7]; Staphylococcus aureus, ATCC25923, 18 h): 8 µg/mL (≈ 21.1 µM); MIC ([8]; Staphylococcus aureus, ATCC29213, 18 h): 4 µg/mL (≈ 10.6 µM); MIC ([9]; Staphylococcus epidermidis, ATCC12228, 18 h): > 128 µg/mL
> 32 | > 32 | > 32 | > 32 | > 32 | > 32 | 4 (≈ 10.9 µM) | 8 (≈ 21.7 µM) | > 128 | CC(=O)c1c(C)[nH]c(C(c2cccs2)c2[nH]c(C)c(C(C)=O)c2C)c1C [3l] | 11 ± 7 | 9 ± 5 | 6 ± 3 | – | – | – | – | – | – | – | – | –
> 128 | > 128 | > 128 | > 128 | > 128 | > 128 | > 32 | 8 (≈ 19.6 µM) | > 128 | CC(=O)c1c(C)[nH]c(C(c2ccc([N+](=O)[O-])cc2)c2[nH]c(C)c(C(C)=O)c2C)c1C [3d] | 0 | 0 | 0 | 8 (≈ 19.6 µM) | > 32 | > 32 | > 32 | > 32 | 8 (≈ 19.6 µM) | 16 (≈ 39.3 µM) | > 128 | MIC [27]: > 128 µg/mL

SMILES | MIC [1, 33] [µg/mL] | MIC [2, 34] [µg/mL] | MIC [3, 35] [µg/mL] | MIC [4, 36] [µg/mL] | MIC [5, 37] [µg/mL] | MIC [6, 38] [µg/mL] | MIC [7, 39] [µg/mL] | MIC [8, 40] [µg/mL] | MIC [9, 41] [µg/mL] | inhibition at 10 µM [10] [%] | inhibition at 10 µM [11] [%] | inhibition at 10 µM [12] [%] | MIC [18] [µg/mL] | MIC [19] [µg/mL] | MIC [20] [µg/mL] | MIC [21] [µg/mL] | MIC [22] [µg/mL] | MIC [23] [µg/mL] | MIC [24] [µg/mL] | MIC [26] [µg/mL] | further results
CCC(c1[nH]c(C)c(C(C)=O)c1C)c1[nH]c(C)c(C(C)=O)c1C [3a] | > 128 | > 128 | > 128 | > 128 | > 128 | > 128 | 32 (≈ 102 µM) | 32 (≈ 102 µM) | > 128 | 41 | 30 | – | 32 (≈ 102 µM) | 16 (≈ 50.9 µM) | 16 (≈ 50.9 µM) | > 128 | 32 (≈ 102 µM) | 16 (≈ 50.9 µM) | 32 (≈ 102 µM) | > 128 | MIC [13]: > 128 µg/mL; MIC [14]: > 128 µg/mL; MIC [15]: > 128 µg/mL; MIC [16]: > 128 µg/mL; MIC [17]: > 128 µg/mL; MIC [25]: 32 µg/mL (≈ 102 µM); MIC [27]: > 128 µg/mL; MIC [28]: > 128 µg/mL; MIC [29]: > 128 µg/mL; MIC [30]: > 128 µg/mL; MIC [31]: > 128 µg/mL; MIC [32]: > 128 µg/mL
CC(=O)c1c(C)[nH]c(C(c2ccccc2)c2[nH]c(C)c(C(C)=O)c2C)c1C [3b] | > 128 | > 128 | > 128 | > 128 | > 128 | > 128 | 4 (≈ 11 µM) | 4 (≈ 11 µM) | > 128 | 43 | 32 | – | 4 (≈ 11 µM) | 8 (≈ 22.1 µM) | 4 (≈ 11 µM) | 8 (≈ 22.1 µM) | 4 (≈ 11 µM) | 8 (≈ 22.1 µM) | 4 (≈ 11 µM) | > 128 | MIC [13]: > 128 µg/mL; MIC [14]: > 128 µg/mL; MIC [15]: > 128 µg/mL; MIC [16]: > 128 µg/mL; MIC [17]: > 128 µg/mL; MIC [25]: 8 µg/mL (≈ 22.1 µM); MIC [27]: > 128 µg/mL; MIC [28]: > 128 µg/mL; MIC [29]: > 128 µg/mL; MIC [30]: > 128 µg/mL; MIC [31]: > 128 µg/mL; MIC [32]: > 128 µg/mL
